Measurements: ChEMBL document CHEMBL1130448, “CETP inhibitory activity of ceramides, isolated from the gorgonian Acabaria Undulata” (Bioorg Med Chem Lett, 1997)

Target: T1, Cholesteryl ester transfer protein (Homo sapiens, UniProt P11597)
T1 sequence (P11597 whole entry): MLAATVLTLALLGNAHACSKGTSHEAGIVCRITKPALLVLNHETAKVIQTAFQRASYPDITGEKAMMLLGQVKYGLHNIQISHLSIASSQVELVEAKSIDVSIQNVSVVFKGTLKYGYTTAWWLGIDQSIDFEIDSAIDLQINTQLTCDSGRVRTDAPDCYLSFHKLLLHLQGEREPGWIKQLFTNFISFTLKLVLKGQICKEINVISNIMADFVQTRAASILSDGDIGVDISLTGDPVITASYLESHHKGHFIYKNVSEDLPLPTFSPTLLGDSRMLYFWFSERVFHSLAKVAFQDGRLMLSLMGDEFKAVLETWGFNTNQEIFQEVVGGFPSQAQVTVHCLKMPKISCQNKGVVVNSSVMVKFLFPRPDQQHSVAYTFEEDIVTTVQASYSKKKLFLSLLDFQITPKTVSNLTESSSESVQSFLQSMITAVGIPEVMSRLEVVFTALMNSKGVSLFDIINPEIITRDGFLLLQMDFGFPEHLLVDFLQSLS
Test: Compound was measured for its inhibitory activity against cholesteryl ester transfer protein (CETP)

| SMILES | IC50 [µM] |
| --- | --- |
| CCCCCCCCCCCCC/C=C/C(O)C(N)CO[C@H]1O[C@H](CO)[C@H](O)[C@H](O)[C@H]1O (stereo not given in full) | 19.7 |
| CCCCCCCCCCCCC/C=C/[C@@H](O)[C@H](CO)NC(=O)CCCCCCCCCCCCCCC | 65.6 |
| CCCCCCC/C=C/C=C/CC/C=C/[C@@H](O)[C@H](CO)NC(=O)CCCCCCCCCCCCCCC | 57.3 |
| CCCCCCCCCCCCCCC[C@@H](O)[C@@H](N)CO (racemic) [DIHYDROSPINGOSINE] | 12.9 |
| CCCCCCCCCCCCC/C=C/[C@@H](O)[C@@H](N)CO [SPHINGOSINE] | 11.5 |
| CCCCCCCCCCCCC/C=C/[C@@H](O)[C@@H](N)COP(=O)([O-])OCC[N+](C)(C)C [SPHINGOSYLPHOSPHORYLCHLOLINE] | 157 |

Second part, the compound after the results:

| IC50 [µM] | SMILES |
| --- | --- |
| 25 | CC(C)CNC(=O)/C=C/[C@@H]1C[C@H]1[C@@H]1C[C@H]1[C@@H]1C[C@H]1[C@@H]1C[C@H]1[C@@H]1C[C@H]1/C=C/[C@@H]1C[C@H]1C |
| 86.3 | CCCCCCCCCCCCCCCC(=O)N[C@@H](CO)[C@H](O)/C=C/CC/C=C/CCCCCCCC(C)C |
| 6.3 | CCCCCCCCCCCCC/C=C/C(O)C(CO)N(C)C (stereo not given) |
| 46.8 | CCCCCCCCC/C=C/CC/C=C/[C@@H](O)[C@H](CO)NC(=O)CCCCCCCCCCCCCCC |
